The source of these data is ChEMBL document CHEMBL2074173, “Organic anion-transporting polypeptide B (OATP-B) and its functional comparison with three other OATPs of human liver” (Gastroenterology, 2001).

Where a SMILES comes first, the peptide text is derived from it. [ ]: non-standard residue; d: D form.

Data set [1] has as its target T1, Solute carrier organic anion transporter family member 1B3 (Homo sapiens, UniProt Q9NPD5).
T1 sequence (Q9NPD5 whole entry): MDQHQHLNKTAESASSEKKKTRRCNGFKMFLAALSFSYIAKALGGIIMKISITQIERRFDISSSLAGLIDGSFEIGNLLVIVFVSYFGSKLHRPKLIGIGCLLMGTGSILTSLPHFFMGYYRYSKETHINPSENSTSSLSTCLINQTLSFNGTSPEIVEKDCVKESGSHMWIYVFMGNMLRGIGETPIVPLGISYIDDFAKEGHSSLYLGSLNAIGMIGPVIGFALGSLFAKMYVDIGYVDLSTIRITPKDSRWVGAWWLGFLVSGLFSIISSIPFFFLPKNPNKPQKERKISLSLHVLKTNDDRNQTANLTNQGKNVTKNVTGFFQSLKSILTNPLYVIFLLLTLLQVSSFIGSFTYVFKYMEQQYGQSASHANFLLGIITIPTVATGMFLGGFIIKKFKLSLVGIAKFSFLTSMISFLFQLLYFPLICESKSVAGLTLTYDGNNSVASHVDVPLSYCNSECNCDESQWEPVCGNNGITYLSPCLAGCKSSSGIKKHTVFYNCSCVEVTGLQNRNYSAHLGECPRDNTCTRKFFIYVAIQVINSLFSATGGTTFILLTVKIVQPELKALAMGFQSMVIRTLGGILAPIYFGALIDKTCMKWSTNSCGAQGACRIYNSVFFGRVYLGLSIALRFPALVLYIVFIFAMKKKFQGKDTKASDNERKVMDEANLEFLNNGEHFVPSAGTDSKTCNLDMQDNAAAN
Description: (§1) TP_TRANSPORTER: uptake in Xenopus laevis oocytes. Type of data set: functional, cell-based, Oocyte. Conditions: oocyte.

The target in data set [2] is T2, Solute carrier organic anion transporter family member 1B1 (Homo sapiens, UniProt Q9Y6L6).
T2 sequence (Q9Y6L6 whole entry): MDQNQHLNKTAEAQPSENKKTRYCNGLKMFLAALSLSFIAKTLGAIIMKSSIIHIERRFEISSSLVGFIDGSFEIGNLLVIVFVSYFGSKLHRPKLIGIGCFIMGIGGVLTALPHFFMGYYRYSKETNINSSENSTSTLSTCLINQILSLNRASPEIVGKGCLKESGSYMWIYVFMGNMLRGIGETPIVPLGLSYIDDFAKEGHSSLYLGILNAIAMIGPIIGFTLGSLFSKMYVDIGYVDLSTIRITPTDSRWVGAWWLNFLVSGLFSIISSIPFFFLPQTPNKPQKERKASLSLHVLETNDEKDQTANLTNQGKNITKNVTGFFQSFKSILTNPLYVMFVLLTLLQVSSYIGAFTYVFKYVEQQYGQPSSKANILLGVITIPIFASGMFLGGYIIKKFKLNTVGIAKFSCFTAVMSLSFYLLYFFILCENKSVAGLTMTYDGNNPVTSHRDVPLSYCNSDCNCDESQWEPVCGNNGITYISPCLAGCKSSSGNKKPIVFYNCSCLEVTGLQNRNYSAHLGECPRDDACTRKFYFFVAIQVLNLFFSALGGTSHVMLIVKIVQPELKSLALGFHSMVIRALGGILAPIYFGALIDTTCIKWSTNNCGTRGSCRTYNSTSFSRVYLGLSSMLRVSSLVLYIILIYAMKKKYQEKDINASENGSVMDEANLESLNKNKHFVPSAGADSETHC
The description is as §1. Type of data set: functional, cell-based. As to conditions: oocyte.

Data set [3] has as its target T3, Solute carrier organic anion transporter family member 1A2 (Homo sapiens, UniProt P46721).
T3 sequence (P46721 whole entry): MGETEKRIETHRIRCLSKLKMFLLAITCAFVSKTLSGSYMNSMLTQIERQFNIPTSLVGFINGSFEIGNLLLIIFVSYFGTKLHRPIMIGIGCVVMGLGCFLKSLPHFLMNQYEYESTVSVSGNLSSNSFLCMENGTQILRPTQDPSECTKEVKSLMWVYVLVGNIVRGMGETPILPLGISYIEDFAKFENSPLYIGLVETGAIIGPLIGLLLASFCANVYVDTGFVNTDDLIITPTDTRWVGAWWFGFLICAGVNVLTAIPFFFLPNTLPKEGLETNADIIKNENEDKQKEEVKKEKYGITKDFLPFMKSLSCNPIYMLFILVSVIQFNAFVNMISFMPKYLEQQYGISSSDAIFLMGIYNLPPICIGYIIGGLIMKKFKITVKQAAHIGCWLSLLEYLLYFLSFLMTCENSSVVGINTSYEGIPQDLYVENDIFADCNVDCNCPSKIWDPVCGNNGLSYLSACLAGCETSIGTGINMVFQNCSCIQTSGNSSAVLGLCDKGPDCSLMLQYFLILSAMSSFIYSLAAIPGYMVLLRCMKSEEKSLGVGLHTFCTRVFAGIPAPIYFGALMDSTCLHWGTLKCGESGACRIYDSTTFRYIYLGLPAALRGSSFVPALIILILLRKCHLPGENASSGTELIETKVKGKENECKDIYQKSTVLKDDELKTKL
The description is as §1. Type of data set: functional, cell-based. As to conditions: oocyte.

For data set [4], the target named is T4, Solute carrier organic anion transporter family member 2B1 (Homo sapiens, UniProt O94956).
T4 sequence (O94956 whole entry): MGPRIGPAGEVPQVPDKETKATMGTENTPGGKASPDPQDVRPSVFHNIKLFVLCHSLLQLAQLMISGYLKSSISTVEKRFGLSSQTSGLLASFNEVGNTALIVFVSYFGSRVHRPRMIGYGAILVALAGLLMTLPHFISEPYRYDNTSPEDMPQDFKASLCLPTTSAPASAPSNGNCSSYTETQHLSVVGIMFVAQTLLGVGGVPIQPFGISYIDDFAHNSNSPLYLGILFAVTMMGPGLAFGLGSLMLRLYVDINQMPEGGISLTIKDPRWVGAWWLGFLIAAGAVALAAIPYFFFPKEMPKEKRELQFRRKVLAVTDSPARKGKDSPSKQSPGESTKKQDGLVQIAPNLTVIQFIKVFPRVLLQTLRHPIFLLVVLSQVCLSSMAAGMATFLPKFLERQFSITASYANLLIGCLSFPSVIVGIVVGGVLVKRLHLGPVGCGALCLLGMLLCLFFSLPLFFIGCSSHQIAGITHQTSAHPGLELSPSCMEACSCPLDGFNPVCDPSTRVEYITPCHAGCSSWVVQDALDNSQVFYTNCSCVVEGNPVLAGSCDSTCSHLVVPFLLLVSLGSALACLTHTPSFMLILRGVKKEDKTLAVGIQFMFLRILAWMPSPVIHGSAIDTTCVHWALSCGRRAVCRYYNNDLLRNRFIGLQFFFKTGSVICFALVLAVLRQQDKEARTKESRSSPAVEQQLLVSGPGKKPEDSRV
Described as §1. Type of data set: functional, cell-based. Conditions: oocyte.

Data set [5] addresses T5, Solute carrier organic anion transporter family member 1B3 (OATP1B3, SLCO1B3) (Homo sapiens, UniProt Q9NPD5).
T5 sequence (Q9NPD5 whole entry): T1 sequence (Q9NPD5 whole entry)
The data set is described as §1. Conditions: Xenopus laevis oocytes expressing the transporter. Type of data set: functional, cell-based, Oocyte.

Substrate in data set [6]: O=C1OC(c2ccc(O)c(S(=O)(=O)O)c2)(c2ccc(O)c(S(=O)(=O)O)c2)c2c(Br)c(Br)c(Br)c(Br)c21
The data set is described as §1. Type of data set: functional, cell-based, Oocyte.

With `CC1(C)SSC(C)(C)[C@@H](NC(=O)[C@@H](N)Cc2ccc(O)cc2)C(=O)NCC(=O)N[C@@H](Cc2ccccc2)C(=O)N[C@H]1C(=O)O`, the Activity entry in data set [1] and in data set [2] was “substrate [+]” each time.

As for `CC(C)C[C@@H]1NC(=O)[C@@H](C(C)C)NC(=O)[C@@H]2CCCN2C(=O)[C@@H](CC(=O)O)NC(=O)[C@@H](Cc2c[nH]c3ccccc23)NC1=O` [BQ-123] (cyclo(L[dW][dD]P[dV])), the Activity entry in data set [1], in data set [3] and in data set [2] was “substrate [+]” throughout. Take `CC(C)[C@H](NC(=O)[C@H](CCC(=O)O)NC(=O)[C@H](Cc1ccccc1)NC(=O)[C@@H](C)NC(=O)[C@@H](N)Cc1ccc(O)cc1)C(=O)N[C@H](C(=O)NCC(N)=O)C(C)C` [DELTORPHIN II]: the Activity result in data set [1] was “substrate [+]”. As for `CCCCC[C@H](O)/C=C/[C@H]1[C@H](O)CC(=O)[C@@H]1C/C=C\CCCC(=O)O` [DINOPROSTONE], in data set [3], the Activity result is “substrate [+]”. Take `C[C@]12CC[C@@H]3c4ccc(O)cc4CC[C@H]3[C@@H]1CC[C@@H]2O[C@@H]1O[C@H](C(=O)O)[C@@H](O)[C@H](O)[C@H]1O` [ESTRADIOL 17B GLUCURONIDE]: the Activity entry in data set [1] and in data set [3] was “substrate [+]” throughout. In the case of `C[C@]12CC[C@@H]3c4ccc(OS(=O)(=O)O)cc4CC[C@H]3[C@@H]1CCC2=O` [ESTRONE SULFURIC ACID], the Activity result in data set [1] and in data set [4] was “substrate [+]” throughout. Turning to `C[C@H](CCC(=O)NCC(=O)O)[C@H]1CC[C@H]2[C@@H]3[C@H](O)C[C@@H]4C[C@H](O)CC[C@]4(C)[C@H]3C[C@H](O)[C@]12C` [GLYCOCHOLIC ACID], the Activity result in data set [1], in data set [3] and in data set [2] was “substrate [+]” throughout. With `CCCCC/C=C\C\C=C/C=C/C=C/[C@@H](SC[C@@H](NC(=O)CC[C@H](N)C(=O)O)C(=O)NCC(=O)O)[C@@H](O)CCCC(=O)O` [LEUKOTRIEN C4], the Activity entry in data set [1] is “substrate [+]”. Same read-out and setting: for `N[C@@H](Cc1cc(I)c(Oc2cc(I)c(O)c(I)c2)c(I)c1)C(=O)O` [LEVOTHYROXINE] the value was “substrate [+]”; for `N[C@@H](Cc1cc(I)c(Oc2ccc(O)c(I)c2)c(I)c1)C(=O)O` [LIOTHYRONINE], “substrate [+]”. With `C[C@@H]1O[C@@H](O[C@H]2C[C@@H](O)[C@]3(CO)[C@H]4[C@H](O)C[C@]5(C)[C@@H](C6=CC(=O)OC6)CC[C@]5(O)[C@@H]4CC[C@]3(O)C2)[C@H](O)[C@H](O)[C@H]1O` [OUABAIN], the Activity result in data set [1] and in data set [3] was “substrate [+]” in each case. Regarding `C[C@]12CC[C@H](OS(=O)(=O)O)CC1=CC[C@@H]1[C@@H]2CC[C@]2(C)C(=O)CC[C@@H]12` [PRASTERONE SULFURIC ACID], the Activity result in data set [1] and in data set [4] was “substrate [+]” each time. On to `O=C1OC(c2ccc(O)c(S(=O)(=O)O)c2)(c2ccc(O)c(S(=O)(=O)O)c2)c2c(Br)c(Br)c(Br)c(Br)c21` [SULFOBROMOPHTHALEIN SODIUM], for which, in data set [5], the Km (usually the substrate concentration at which the rate is half of its maximum) was 0.4 µM.

B1: Solute carrier organic anion transporter family member 2B1 (Homo sapiens) (protein)
chain: T4 sequence (O94956 whole entry)
With B1, in data set [6], the Michaelis constant (Km) was 0.7 µM.

B2: Solute carrier organic anion transporter family member 1B1 (Homo sapiens) (protein)
chain: T2 sequence (Q9Y6L6 whole entry)
For B2, the Km in data set [6] was determined as 0.3 µM.
